Assay results: patent US20260108602A1, “METHODS AND SYSTEMS FOR IMPROVING ANTI-CANCER THERAPIES” (Osasuna Therapeutics SA, priority 2023, published 2026)

Columns and labels:
[1] = tested on: MCA205 fibrosarcoma cells; assay: Anti-tumor vaccination assay (MTX-treated MCA205 cells, rechallenge with live cells); assay type: in vivo, C57BL/6J mice; details: CORT in drinking water + vaccination with MTX-treated MCA205 cells
Experimental: Wild-type MCA205 cells were treated with MTX (4 μM) for 24 h. Then supernatants and detached cells were collected and centrifuged, and the pellet was further washed with ice-cold PBS. 2×10^6 cells in 100 μl PBS were s.c. injected to the left flank of immunocompetent C57BL/6J mice (day −7). PBS was injected as a negative control. One week later, all mice were confirmed tumor-free in the vaccination flank and living cancer cells (2×10^5 cells per mouse for MCA205 cells) were injected in the right flank of vaccinated mice (day 0). Corticosterone and neutralizing anti-DBI monoclonal antibody were continually administrated throughout the experiment. Tumor growth was regularly monitored for the following weeks.
After the first week of treatment, the animals were subcutaneously (s.c.) injected with mitoxantrone (MTX)-treated MCA205 fibrosarcoma cells, knowing that MTX-induces ICD and that MTX-treated cancer cells induce a protective anti-cancer immune response that suppresses, delays or reduces the growth of tumors that would grow in naïve mice after injection of live, untreated MCA205 fibrosarcoma cell. [Panaretakis T. et al., Mechanisms of pre-apoptotic calreticulin exposure in immunogenic cell death, EMNO J, 2009, 28 (5), pp. 578-590.]

TC1 NSCLC cells = assay: Orthotopic TC1 Luc lung cancer model (bioluminescence imaging); assay type: in vivo, C57BL/6J mice; details: corticosterone in drinking water + OXA + anti-PD1
Experimental: TC-1—To establish the orthotopic TC1 model, wild type TC1 Luc cells (5×10^5 in 100 μL PBS) were intravenously injected to wild type C57BL/6J mice. Tumor incidence and development were monitored by in vivo photonic imaging of tumor cells' luciferase activity. About 7 days after injection, tumor incidence in the lung was detected at an exposure time of 4 min, and mice were randomized according to quantified tumor sizes and assigned to different groups for treatment as described below. Anti-DBI or isotype control antibody was intraperitoneally (i.p.) injected on day 9, at the dose of 2.5 mg/kg body weight, and on day 10, then maintained every other day until day 18. […]
Next, the positive effects of anti-ACBP/DBI mAb on chemo-immunotherapy in another model, namely non-small cell lung cancers (NSCLC) were confirmed. TC1 NSCLC cells expressing luciferase injected intravenously (i.v.) into syngeneic immunocompetent C57BL/6J mice form orthotopic lung cancers that can be monitored by bioluminescence imaging. […] From day 9 post-inoculation of TC1 cells, NSCLC-bearing mice were periodically i.p. injected with anti-ACBP/DBI mAb (or an isotype control mAb) and then were treated on day 11 post-inoculation with OXA (i.p. once) and anti-PD1 mAb (injected i.p. on days 19, 23 and 27 post-TC1 injection) (FIG. 4A) and tumor progression was determined by bioluminescence imaging (FIG. 4B). […]

[2] = tested on: E0771 breast cancer cells; assay: Subcutaneous E0771 breast cancer model with anti-PD1 immunotherapy
Experimental: E0771—For the establishment of syngeneic solid tumors, C57BL/6J mice (8-weeks-old female) were injected subcutaneously (s.c.) with 5×10^5 wild type E0771 in the right lower quadrant of the abdomen alongside of the mammary gland (close to the orthotopic site). Approximately 7 days after injection, tumor growth was monitored with an electronic caliper and mice were assigned to different groups. From day 8, mice were treated with a neutralizing anti-DBI monoclonal antibody (5 mg/kg) or its isotype (IgG2A, 5 mg/kg) every two days. At the same time, free corticosterone (Sigma-Aldrich) was added to the drinking water (0.1 mg/ml; water/ethanol 0.66%). Anti-PD1 monoclonal antibody (αPD1; 10 mg/kg) was injected at days 12, 15, 18 and 21. Tumor growth was monitored routinely with an electronic caliper.
For tumor growth experiments, longitudinal analyses were performed by linear mixed effect modeling of tumor sizes. […]
C57BL/6J mice were inoculated subcutaneously (s.c.) with syngeneic E0771 breast cancer cells. Six days later treatment of corticosterone (CORT or as a control with vehicle only, 0.66% ethanol, which was administered in the drinking water) and anti-ACBP/DBI mAb (or the isotype control mAb, both injected i.p. three times per week) was initiated and tumor growth was monitored over several weeks. […]

[3] = tested on: Dbi^+/+ and Dbi^−/− HCC cells; assay: CCK-8 viability assay of primary HCC cells treated with ferroptosis inducers; assay type: cell-based, mouse; details: ferroptosis inducer combined with Dbi knockout; normalized to respective Dbi^+/+ and Dbi^−/− vehicle controls
Experimental: (FIG. 26A-FIG. 26D). Groups receiving ferroptosis inducers were normalized to their respective Dbi^+/+ and Dbi^−/− vehicle (Veh) treated control groups.
Proliferation assays. CCK-8 assays were performed with a commercial kit. For colony formation assays, HEPG-2 (NC, SH1, SH2, and SH3, 1000 cells/well), HUH-7 (NC, SH1, SH2, and SH3, 1000 cells/well) and Hep55.1C (NC, SH1, SH2, and SH3, 500 cells/well) cancer cells were seeded into 6-well plates in 2 mL medium with 10% FBS. The medium was changed every 3 days until control (NC) wells approached confluency, within 7-14 days. After gently washed twice with PBS, colonies were fixed with 4% paraformaldehyde for 30 min and stained with 0.2% crystal violet for 30 min at room temperature. The colony number (colonies >0.3 mm) was counted with isoftware. All experiments were performed in triplicates.
Six-well plates were coated with 2% FBS/PBS+0.1% laminin. HCC tumors were isolated from NASH-driven mouse model (WD+D-fructose+D-glucose in water+CCl4 administered to DBI^+/+ or DBI^−/− mice) and washed twice with ice-cold PBS. The tumor tissues were transferred to 10 cm plates, minced completely with a razor blade and then transferred to 15 mL falcon tubes. Ten mL 2 mg/mL collagenase dispase solution was added, the cells were incubated rotating for 30 min at 37° C. and were filtered through 100 μm meshes into 50 mL falcon tubes, before addition of 10 mL 2% FBS/PBS to wash the tissues. The samples were then filtered sequentially through 70 μm and 40 μm strainers, brought up to 15 mL volume and centrifuged again (room temperature (RT), 1000 rpm, 2 min). The cells were then resuspended in 5 mL of 1×red blood cell (RBC) lysis buffer, incubated on ice for 10 min before addition of 5 mL 2% FBS/PBS, followed by spinning (RT, 1000 rpm, 2 min). The washing step was repeated 2 times, and the cells were resuspended in culture medium (500 mL DMEM+10% FBS+1×ITS+20 μl EGF (1 μg/μl)+20 μl IGFII (0.2 μg/μl)), before seeding into 6-well plates.

| Structure (SMILES) | vaccination effect [1] | chemo-immunotherapeutic effect (tumor size by bioluminescence) (TC1 NSCLC cells) | tumor growth (effect of anti-PD1) ([2]; CORT in drinking water + anti-PD1) | animal survival (efficacy of anti-PD1) ([2]; corticotherapy + anti-PD1) | viability (CCK-8) [3] |
| --- | --- | --- | --- | --- | --- |
| C[C@]12C[C@H](O)[C@H]3[C@@H](CCC4=CC(=O)CC[C@@]43C)[C@@H]1CC[C@@H]2C(=O)CO [corticosterone] | reduced this vaccination effect | strongly interfered | lost | loss | – |
| CCCCC/C=C\C/C=C\CCCCCCCC(=O)O [LA, linoleic acid] | – | – | – | – | particularly vulnerable to losing their viability |
| CC(C)Oc1ccc(C(=O)Cn2ccnc2)cc1-n1c(CN2CCN(C(=O)COc3ccc(Cl)cc3)CC2)nc2ccccc2c1=O [IKE, imidazole ketone erastin] | – | – | – | – | particularly vulnerable to losing their viability |
| COC(=O)c1ccc([C@@H]2c3[nH]c4ccccc4c3C[C@@H](C(=O)OC)N2C(=O)CCl)cc1 [RSL3] | – | – | – | – | particularly vulnerable to losing their viability |
